According to patent US20060099225A1 (priority 2004, published 2006):

Columns and labels:
Ebola virus (EBOV) = type: cell-based
[1] = system: 293T cells transfected with Ebola GP; type: cell-based, human

Compound | general cytotoxic effect, trypan blue exclusion (Vero E6 cells) | EBOV infection, viral titer 48 hour post infection (Ebola virus (EBOV)) | virus production when cells recover in medium 4 h after treatment before infection (Ebola virus (EBOV)) | association of Ebola GP with rafts (detergent insoluble fraction) after pre-treatment [1]
CCCCC[C@@H](O)[C@H]1C(=O)O[C@H](C)[C@@H](O)/C=C/C=C/C=C/C=C/C=C(\C)[C@@H](O)C[C@H](O)C[C@H](O)C[C@H](O)C[C@H](O)C[C@H](O)C[C@@H]1O [filipin] | cells were shown to be viable | significant inhibition of EBOV infection | could produce large amounts of virus | –
methyl-β-cyclodextrin | – | – | – | almost complete removal of Ebola GP from rafts
nystatin | cells were shown to be viable | – | – | –
